# Reference: USRE45128E1, “Cephalotaxane derivatives and their processes of preparation and purification” (IVAX International GmbH, priority 1998, dated 2014)
# Assays:
# [1] = Stability of cephalotaxine in acidic solution; assay type: physicochemical; details: several days in solution at pH 1-4 at 20° C. (personal observation)
# Description: This alkaloid is relatively insensitive to basic media. On the other hand, several authors describe a certain level of sensitivity to acids and to quaternization of the nitrogen with methyl iodide, leading to a racemization by simultaneous inversion of the 3 asymmetric centres and of the nitrogen [D. J. Abraham, R. D. Rosensten and E. L. McGandy, Tetrahedron Letters, 4085 (1969)]. However, a period of several days in solution at pH 1-4 at 20° C. leaves this structure intact (personal observation).
# [2] = continuous intravenous central infusion (CIVI), patients with CML; cited from earlier work
# [3] = doses twenty times lower than that for Taxol; cited from earlier work
# [4] = tested on: chronic myeloid leukaemias that have become resistant to alpha-interferon; details: patients suffering from chronic myeloid leukaemias resistant to alpha-interferon; cited from earlier work
Structure (SMILES),structure after a period in acidic solution [1],extra-hematologic toxicity [2],daily doses at and above which active [3],reinduction of full haematological remissions [4]
"COC1=C[C@]23CCCN2CCc2cc4c(cc2[C@@H]3C1O)OCO4 (single isomer, unassigned; (-)) [cephalotaxine, (−)-cephalotaxine]",intact,–,–,–
"COC(=O)C[C@](O)(CCC(C)(C)O)C(=O)O[C@@H]1C(OC)=C[C@]23CCCN2CCc2cc4c(cc2[C@H]13)OCO4 [HA, harringtonine]",–,very mild,–,–
"COC(=O)C[C@](O)(CCCC(C)(C)O)C(=O)OC1C(OC)=C[C@]23CCCN2CCc2cc4c(cc2[C@H]13)OCO4 (stereo partly drawn) [HHT, cephalotaxine, 4-methyl (2R)-2-hydroxy-2-(4-hydroxy-4-methylpentyl)butanedioate (ester)]",–,very mild,≥ 2.5 mg/m^2 of body area per 24 hours,70%
